Source: ChEMBL document CHEMBL1201862, “PubChem BioAssay data set” (2004)
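Compound exposure: 48 hours, 5 concentrations, 96-well plates. The concentration for 50% growth inhibition is given as GI50.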 Active and inactive are the calls of the source. Rule as the data show it: active = GI50 up to about 1.1 µM and inactive = higher.

What was measured:
Assay in all cases: NCI tumour cell line growth inhibition, 48 h
[1] = system: CAKI-1
[2] = system: HCT-15
[3] = system: HOP-62
[4] = system: HT-29
[5] = system: KM12
[6] = system: MDA-MB-231
[7] = system: MDA-MB-435
[8] = system: MOLT-4
[9] = system: Malme-3M
[10] = system: NCI-H23
[11] = system: OVCAR-3
[12] = system: OVCAR-5
[13] = system: SF-539
[14] = system: SK-MEL-28
[15] = system: SK-MEL-5
[16] = system: SNB-75
[17] = system: TK-10
[18] = system: UO-31
[19] = system: SK-OV-3
[20] = system: UACC-62

Row | SMILES | GI50 [1] | GI50 [2] [µM] | GI50 [3] | GI50 [4] | GI50 [5] | GI50 [6] | GI50 [7] | GI50 [8] | GI50 [9] | GI50 [10] | GI50 [11] | GI50 [12] | GI50 [13] | GI50 [14] | GI50 [15] | GI50 [16] | GI50 [17] | GI50 [18] | GI50 [19] | GI50 [20]
1 | CCOP(=O)(OCC)C(c1ccc(F)cc1)N(C(=O)NC(F)(F)F)c1ccc(F)cc1 (stereo unspecified) | > 100 µM (inactive) | > 100 | > 100 µM (inactive) | > 100 µM (inactive) | > 100 µM (inactive) | > 100 µM (inactive) | > 100 µM (inactive) | > 100 µM (inactive) | > 100 µM (inactive) | > 100 µM (inactive) | > 100 µM (inactive) | > 100 µM (inactive) | > 100 µM (inactive) | > 100 µM (inactive) | > 100 µM (inactive) | > 100 µM (inactive) | > 100 µM (inactive) | > 100 µM (inactive) | – | –
2 | O=C1CC(O)c2cscc21 (stereo unspecified) | > 100 µM (inactive) | > 100 | > 100 µM (inactive) | > 100 µM (inactive) | > 100 µM (inactive) | > 100 µM (inactive) | > 100 µM (inactive) | 35.2 µM (inactive) | > 100 µM (inactive) | > 100 µM (inactive) | > 100 µM (inactive) | > 100 µM (inactive) | > 100 µM (inactive) | > 100 µM (inactive) | > 100 µM (inactive) | > 100 µM (inactive) | > 100 µM (inactive) | – | > 100 µM (inactive) | > 100 µM (inactive)
3 | c1ccc(COC2C3COC(O3)C(OCc3ccccc3)C2OCc2ccccc2)cc1 (stereo unspecified) | > 100 µM (inactive) | 34 | 71.3 µM (inactive) | – | 29.6 µM (inactive) | > 100 µM (inactive) | 18.2 µM (inactive) | 6.75 µM (inactive) | – | 77.3 µM (inactive) | 57.8 µM (inactive) | 69.5 µM (inactive) | > 100 µM (inactive) | – | 34.4 µM (inactive) | 22.8 µM (inactive) | 70.5 µM (inactive) | 56.2 µM (inactive) | > 100 µM (inactive) | > 100 µM (inactive)
4 | FC(F)(F)c1ccc2c(c1)nc(Cc1ccc(Cl)cc1)n2CC1CCCN2CCCCC12 (stereo unspecified) | 14.8 µM (inactive) | 8.69 | 14.1 µM (inactive) | 2.81 µM (inactive) | 5.02 µM (inactive) | 3.27 µM (inactive) | 6.27 µM (inactive) | 3.18 µM (inactive) | 1.73 µM (inactive) | – | 3.8 µM (inactive) | 12.5 µM (inactive) | – | 2.52 µM (inactive) | 3.89 µM (inactive) | 1.59 µM (inactive) | 12.2 µM (inactive) | 0.0194 µM (active) | 11.9 µM (inactive) | 2.89 µM (inactive)
5 | Cc1cn(C2CC(n3cc(Cn4cc(I)c(=O)[nH]c4=O)nn3)C(CO)O2)c(=O)[nH]c1=O (stereo unspecified) | > 100 µM (inactive) | > 100 | > 100 µM (inactive) | – | > 100 µM (inactive) | > 100 µM (inactive) | > 100 µM (inactive) | > 100 µM (inactive) | – | > 100 µM (inactive) | > 100 µM (inactive) | > 100 µM (inactive) | > 100 µM (inactive) | > 100 µM (inactive) | > 100 µM (inactive) | > 100 µM (inactive) | > 100 µM (inactive) | > 10 µM (inactive) | > 100 µM (inactive) | > 100 µM (inactive)
6 | O=C(N[C@@H](Cc1ccccc1)B(O)O)[C@H](Cc1cccc2ccccc12)NC(=O)N1CCOCC1 | 0.00555 µM (active) | 0.155 | 0.00524 µM (active) | 0.00239 µM (active) | 0.00185 µM (active) | 0.00267 µM (active) | 0.000298 µM (active) | 0.000371 µM (active) | 0.00187 µM (active) | 0.00172 µM (active) | 0.000891 µM (active) | 0.00281 µM (active) | 0.000265 µM (active) | 0.00106 µM (active) | 0.00154 µM (active) | < 0.01 µM (active) | 0.00566 µM (active) | 0.232 µM (active) | – | 0.00248 µM (active)
7 | COc1ccc(/C=C\c2cc(OC)c(OC)c(OC)c2)c(O)c1O [COMBRETASTATIN A-1] | 0.238 µM (active) | – | 0.0893 µM (active) | 7.03 µM (inactive) | 0.0658 µM (active) | 0.0148 µM (active) | < 0.01 µM (active) | 0.0785 µM (active) | 0.678 µM (active) | – | – | 4.37 µM (inactive) | – | 5.41 µM (inactive) | 0.05 µM (active) | 1.31 µM (inactive) | 2.92 µM (inactive) | 0.91 µM (active) | – | 0.0394 µM (active)
8 | NNc1[nH]c(=S)[nH]c1C(N)=O | – | > 100 | > 100 µM (inactive) | > 100 µM (inactive) | > 100 µM (inactive) | > 100 µM (inactive) | > 100 µM (inactive) | > 100 µM (inactive) | > 100 µM (inactive) | > 10 µM (inactive) | > 100 µM (inactive) | > 100 µM (inactive) | > 100 µM (inactive) | > 100 µM (inactive) | > 100 µM (inactive) | > 100 µM (inactive) | > 100 µM (inactive) | > 100 µM (inactive) | > 100 µM (inactive) | > 100 µM (inactive)
9 | Cc1cc(C#N)c(Nc2ccc(F)cc2[N+](=O)[O-])s1 | 84.9 µM (inactive) | > 100 | 30.3 µM (inactive) | – | > 100 µM (inactive) | 21.5 µM (inactive) | > 100 µM (inactive) | > 100 µM (inactive) | 70.6 µM (inactive) | > 100 µM (inactive) | > 100 µM (inactive) | > 100 µM (inactive) | 80.7 µM (inactive) | > 100 µM (inactive) | – | 21.3 µM (inactive) | – | > 100 µM (inactive) | > 100 µM (inactive) | > 100 µM (inactive)
10 | COC1/C=C/C(C)C(C(C)C(OC)C(C)CCC(=O)C(C)C(CCC(=O)O)OC)OC(=O)/C=C/C=C(\C)CC(OC)CC2=CC(=O)O[C@@H](C(C)C(OC)CC(OC)/C=C/C(C)C(OC)C1)[C@H]2O (stereo partly specified) | 0.269 µM (active) | 0.74 | 0.631 µM (active) | 0.284 µM (active) | 2.19 µM (inactive) | 0.483 µM (active) | 0.748 µM (active) | 0.467 µM (active) | 0.592 µM (active) | 1.61 µM (inactive) | 0.646 µM (active) | > 5 µM (inactive) | 0.292 µM (active) | 0.792 µM (active) | 0.296 µM (active) | 0.16 µM (active) | 1.65 µM (inactive) | – | 1.18 µM (inactive) | 0.787 µM (active)
11 | COC(=O)c1ccc2c(c1)CC1(C2)Cc2ccccc2C1=O (stereo unspecified) | 34.7 µM (inactive) | 36.2 | 38.5 µM (inactive) | 17.5 µM (inactive) | – | 22.7 µM (inactive) | 24.5 µM (inactive) | 15.4 µM (inactive) | 20.8 µM (inactive) | 29.5 µM (inactive) | 29.1 µM (inactive) | 72.3 µM (inactive) | 38.6 µM (inactive) | 14.8 µM (inactive) | 17.9 µM (inactive) | 24.3 µM (inactive) | 31 µM (inactive) | 22.4 µM (inactive) | 68.4 µM (inactive) | –
12 | C/C(=N/NC(=S)Nc1ccccc1C)c1ccccn1 | – | 0.0228 | 0.0299 µM (active) | 0.0726 µM (active) | 0.173 µM (active) | < 0.0216 µM (active) | 0.632 µM (active) | 0.0175 µM (active) | 1.6 µM (inactive) | < 0.0189 µM (active) | 0.0144 µM (active) | 0.0843 µM (active) | 1.01 µM (active) | 1.08 µM (active) | 0.0766 µM (active) | 0.583 µM (active) | 0.259 µM (active) | 0.43 µM (active) | 0.052 µM (active) | 0.232 µM (active)
13 | CNc1ccc([N+](=O)[O-])cc1C(=O)N1CCC[C@H]1CO | > 100 µM (inactive) | > 100 | > 100 µM (inactive) | > 100 µM (inactive) | > 100 µM (inactive) | > 100 µM (inactive) | > 100 µM (inactive) | > 100 µM (inactive) | > 100 µM (inactive) | > 100 µM (inactive) | – | > 100 µM (inactive) | – | > 100 µM (inactive) | > 100 µM (inactive) | > 100 µM (inactive) | > 100 µM (inactive) | > 100 µM (inactive) | > 100 µM (inactive) | > 100 µM (inactive)
14 | Cn1c(=O)oc2cc(C(=S)N3CCCCC3)ccc21 | > 100 µM (inactive) | > 100 | > 100 µM (inactive) | > 100 µM (inactive) | > 100 µM (inactive) | > 100 µM (inactive) | > 100 µM (inactive) | > 100 µM (inactive) | > 100 µM (inactive) | > 100 µM (inactive) | > 100 µM (inactive) | > 100 µM (inactive) | > 100 µM (inactive) | > 100 µM (inactive) | > 100 µM (inactive) | > 100 µM (inactive) | > 100 µM (inactive) | – | > 100 µM (inactive) | > 100 µM (inactive)
15 | CN1CCC(CNC(=O)CCCCCCCCC(=O)NCC2(c3ccccc3)CCN(C)CC2)(c2ccccc2)CC1 | – | > 100 | > 100 µM (inactive) | 45.5 µM (inactive) | > 100 µM (inactive) | > 100 µM (inactive) | > 100 µM (inactive) | > 100 µM (inactive) | > 100 µM (inactive) | – | > 100 µM (inactive) | > 100 µM (inactive) | 15 µM (inactive) | > 100 µM (inactive) | > 100 µM (inactive) | 44.2 µM (inactive) | > 100 µM (inactive) | > 100 µM (inactive) | > 100 µM (inactive) | > 100 µM (inactive)
